Reference: patent US11530213B2, “Naphthyridinone derivatives and their use in the treatment of arrhythmia” (NOVARTIS AG, priority 2016, dated 2022)

target: GIRK1/4 (Homo sapiens (Human), UniProt P48544+P48549); experiment: GIRK1/4 inhibition, Quattro (IonWorks) population patch clamp, inward potassium current in GIRK 1/4 HEK293 stable cells (test assay No. 1); format: cell-based; details: percentage of current inhibition normalized to DMSO-only control
Description: The activity of a compound according to the present invention can be assessed by the following in vitro method. • 1. Buffers: • a. External buffer: 10 mM NaCl, 50 mM Na Gluconate, 80 mM K Gluconate, 1.8 mM CaCl2, 1 mM MgCl2, 10 mM HEPES, 10 mM Glucose, pH 7.4; osmolality […]. • b. Internal buffer: 30 mM KCl, 100 mM K Gluconate, 1 mM MgCl2, 10 mM HEPES, 1 mM EGTA, 10 mM NaCl, pH 7.2; osmolality […]. • 2. Compounds: • a. Prepare seven-fold compound dilution series (10 mM to 20 uM) in 100% DMSO, in 384-well polypropylene plates. • b. Propafenone (Sigma Aldrich, catalog number P4670) is used as a positive control and DMSO for neutral control • c. Resuspend 1 ul of compounds in DMSO into 65.7 ul external buffer in 384-well polypropylene plate and load into Plate 1 section of Molecular Devices Quattro • 3. Quattro setup: • a. Load 384-well Population Patch Plate (Molecular Devices #9000-0902) into Quattro • b. Fill Quattro F-soak trough with 20% DMSO and 50% EtOH • c. Fill Quattro buffer trough with external buffer • d. Attach internal buffer flask to Quattro internal buffer tubing • e. Attach PBS (Phosphate Buffered Saline, minus Ca^++ and Mg^++, pH7.4) bottle to F-head & E-head wash on Quattro • 4. Antibiotic: • a. Resuspend 5.6 mg amphotericin B (Sigma Aldrich, catalog number A2411) in 175 ul DMSO • b. Add the resulting solution to 50 ml internal buffer, mix and attach to antibiotic tubing port on Quattro • 5. Cells: • a. Use GIRK 1/4 HEK293 stable cells (obtained from ChanTest, 14656 Neo Parkway, Cleveland, Ohio 44128) grown to […] confluency in the following cell culture medium: DMEM containing 10% (v/v) Fetal Bovine Serum, Penicillin/Streptomycin (at “1×” concentration from a 100× stock), 0.5 mg/ml G418 and 0.1 mg/ml Zeocin. • b. Wash cells with PBS (minus Ca^++ and Mg^++), Detach cells using Detachin (Genlantis, 11011 Torreyana, San Diego, Calif. 92121), and resuspend in external buffer (5 ml final volume at 2.0-2.1×10^6 cells/ml) • c. Load into cell trough of Quattro • 6. Assay Protocol: • Quattro is controlled using IonWorks v2 software to perform the following steps: • a. Add 3.5 ul cells plus 3.5 ul external buffer to wells of Quattro Patch Plate • b. Circulate amphotericin B and internal buffer onto cells • c. Apply the following voltage protocol: Pulse 1: 15 mV for 300 milliseconds (ms), followed by Pulse 2: −120 mV for 400 ms, then Pulse 3: −15 mV for 400 ms, and finally Pulse 4: −120 mV to 40 mV over 500 ms (this is a voltage ramp). • d. Measure magnitude of inward potassium current at time point between 1200-1220 ms from start of Pulse 1 (i.e. during the voltage ramp phase). • e. Add 3.5 ul of diluted compounds (or DMSO) to wells and repeat steps c-d (final compound concentrations are 50 uM to 0.1 uM, for potent compounds 0.5 uM to 0.01 uM and each concentration is tested in quadruplicate—i.e. in 4 separate wells). • f. The difference between current magnitude pre vs. post-compound gives a measure of GIRK1/4 inhibition. • 7. Data analysis:
IC50 values are calculated by plotting the percentage of current inhibition (normalized to the DMSO-only control) as a function of compound concentration using standard data analysis software.

GIRK1/4, sequence (P48549 whole entry): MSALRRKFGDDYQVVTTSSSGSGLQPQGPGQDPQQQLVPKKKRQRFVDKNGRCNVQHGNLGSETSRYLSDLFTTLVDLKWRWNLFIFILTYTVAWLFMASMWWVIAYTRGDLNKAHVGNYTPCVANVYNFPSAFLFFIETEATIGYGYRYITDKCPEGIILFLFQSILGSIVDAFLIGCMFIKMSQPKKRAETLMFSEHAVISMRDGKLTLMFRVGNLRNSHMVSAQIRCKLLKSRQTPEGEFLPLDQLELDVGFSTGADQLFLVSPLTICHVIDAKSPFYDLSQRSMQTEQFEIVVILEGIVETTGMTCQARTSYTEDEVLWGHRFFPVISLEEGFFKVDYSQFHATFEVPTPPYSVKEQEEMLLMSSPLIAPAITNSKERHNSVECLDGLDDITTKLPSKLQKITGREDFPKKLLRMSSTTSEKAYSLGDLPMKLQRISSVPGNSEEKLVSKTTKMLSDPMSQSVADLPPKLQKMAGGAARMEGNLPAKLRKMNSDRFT
GIRK1/4, sequence (P48544 whole entry): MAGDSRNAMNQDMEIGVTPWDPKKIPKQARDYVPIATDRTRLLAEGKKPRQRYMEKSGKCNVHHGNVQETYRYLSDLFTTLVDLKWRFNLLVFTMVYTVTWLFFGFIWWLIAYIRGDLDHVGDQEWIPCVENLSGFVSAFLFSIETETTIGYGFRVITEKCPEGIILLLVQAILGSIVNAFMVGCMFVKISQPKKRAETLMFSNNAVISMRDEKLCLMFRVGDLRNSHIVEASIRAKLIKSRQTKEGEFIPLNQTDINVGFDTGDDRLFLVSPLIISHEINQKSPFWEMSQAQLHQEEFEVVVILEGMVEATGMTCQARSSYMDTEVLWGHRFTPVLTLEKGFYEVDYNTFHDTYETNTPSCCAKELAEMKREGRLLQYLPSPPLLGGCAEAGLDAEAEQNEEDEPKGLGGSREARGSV

SMILES	IC50 [nM]
Cc1cc(=O)c2c(OCC(O)C(C)(C)O)ncc(Cl)c2n1-c1c(Cl)cccc1Cl (single isomer, unassigned) [Example 58, 8-chloro-1-(2,6-dichlorophenyl)-5-(2,3-dihydroxy-3-methylbutoxy)-2-methyl-1,6-naphthyridin-4(1H)-one]	17
Cc1cc(=O)c2c(OCC(O)C(C)(C)O)ncc(Cl)c2n1-c1c(Cl)cccc1Cl (single isomer, unassigned) [Example 59, 8-chloro-1-(2,6-dichlorophenyl)-5-(2,3-dihydroxy-3-methylbutoxy)-2-methyl-1,6-naphthyridin-4(1H)-one]	14
O=c1cc(CO)n(-c2c(Cl)cccc2Cl)c2c(Cl)cnc(CCC(O)CO)c12 (single isomer, unassigned) [Example 76, 8-chloro-1-(2,6-dichlorophenyl)-5-(3,4-dihydroxybutyl)-2-(hydroxymethyl)-1,6-naphthyridin-4(1H)-one]	355
O=c1cc(CO)n(-c2c(Cl)cccc2Cl)c2c(Cl)cnc(CCC(O)CO)c12 (single isomer, unassigned) [Example 77, 8-chloro-1-(2,6-dichlorophenyl)-5-(3,4-dihydroxybutyl)-2-(hydroxymethyl)-1,6-naphthyridin-4(1H)-one]	366
O=c1cc(CO)n(-c2c(Cl)cccc2Cl)c2c(Cl)cnc(CC(O)CO)c12 (single isomer, unassigned) [Example 79, 8-Chloro-1-(2,6-dichlorophenyl)-5-(2,3-dihydroxypropyl)-2-(hydroxymethyl)-1,6-naphthyridin-4(1H)-one]	299
O=c1cc(CO)n(-c2c(Cl)cccc2Cl)c2c(Cl)cnc(CC(O)CO)c12 (single isomer, unassigned) [Example 80, 8-Chloro-1-(2,6-dichlorophenyl)-5-(2,3-dihydroxypropyl)-2-(hydroxymethyl)-1,6-naphthyridin-4(1H)-one]	365
O=c1cc(CO)n(-c2c(Cl)cccc2Cl)c2c(Cl)cnc(C(O)CO)c12 (single isomer, unassigned) [Example 83, 8-Chloro-1-(2,6-dichlorophenyl)-5-(1,2-dihydroxyethyl)-2-(hydroxymethyl)-1,6-naphthyridin-4(1H)-one]	278
O=c1cc(CO)n(-c2c(Cl)cccc2Cl)c2c(Cl)cnc(C(O)CO)c12 (single isomer, unassigned) [Example 84, 8-Chloro-1-(2,6-dichlorophenyl)-5-(1,2-dihydroxyethyl)-2-(hydroxymethyl)-1,6-naphthyridin-4(1H)-one]	116
O=c1cc(CO)n(-c2c(Cl)cccc2Cl)c2c(Cl)cnc(OC[C@@H](O)CO)c12 [Example 1, (S)-8-Chloro-1-(2,6-dichlorophenyl)-5-(2,3-dihydroxpropoxy)-2-(hydroxymethyl)-1,6-naphthyridin-4(1H)-one]	104
O=c1cc(CO)n(-c2c(Cl)cccc2Cl)c2c(Cl)cnc(OC[C@H](O)CO)c12 [Example 2, (R)-8-chloro-1-(2,6-dichlorophenyl)-5-(2,3-dihydroxypropoxy)-2-(hydroxymethyl)-1,6-naphthyridin-4(1H)-one]	159
O=c1cc(CO)n(-c2c(Cl)cccc2Cl)c2c(Cl)cnc(OCC(O)CO)c12 (stereo not shown) [Example 3, 8-chloro-1-(2,6-dichlorophenyl)-5-(2,3-dihydroxypropoxy)-2-(hydroxymethyl)-1,6-naphthyridin-4(1H)-one]	131
CC(C)(O)C(O)COc1ncc(Cl)c2c1c(=O)cc(CO)n2-c1c(Cl)cccc1Cl (stereo not shown) [Example 4, 8-chloro-1-(2,6-dichlorophenyl)-5-(2,3-dihydroxy-3-methylbutoxy)-2-(hydroxymethyl)-1,6-naphthyridin-4(1H)-one]	141
O=c1cc(CO)n(-c2c(Cl)cccc2Cl)c2c(Cl)cnc(OCC3(CO)COC3)c12 [Example 5, 8-chloro-1-(2,6-dichlorophenyl)-2-(hydroxymethyl)-5-((3-(hydroxymethyl)oxetan-3-yl)methoxy)-1,6-naphthyridin-4(1H)-one]	235
O=c1cc(CO)n(-c2c(Cl)cccc2Cl)c2c(Cl)cnc(OCCOCCOCCOCCO)c12 [Example 7, 8-chloro-1-(2,6-dichlorophenyl)-5-(2-(2-(2-(2-hydroxyethoxy)ethoxy)ethoxy)ethoxy)-2-(hydroxymethyl)-1,6-naphthyridin-4(1H)-one]	431
O=c1cc(CO)n(-c2c(Cl)cccc2Cl)c2c(Cl)cnc(OC(CO)CO)c12 [Example 9, 8-chloro-1-(2,6-dichlorophenyl)-5-((1,3-dihydroxypropan-2-yl)oxy)-2-(hydroxymethyl)-1,6-naphthyridin-4(1H)-one]	257
O=c1cc(CO)n(-c2c(Cl)cccc2Cl)c2c(Cl)cnc(OCC3COC3)c12 [Example 10, 8-chloro-1-(2,6-dichlorophenyl)-2-(hydroxymethyl)-5-(oxetan-3-ylmethoxy)-1,6-naphthyridin-4(1H)-one]	120
COCCOCCOc1ncc(Cl)c2c1c(=O)cc(CO)n2-c1c(Cl)cccc1Cl [Example 11, 8-chloro-1-(2,6-dichlorophenyl)-2-(hydroxymethyl)-5-(2-(2-methoxyethoxy)ethoxy)-1,6-naphthyridin-4(1H)-one]	73
O=c1cc(CO)n(-c2c(Cl)cccc2Cl)c2c(Cl)cnc(OCCO)c12 [Example 12, 8-chloro-1-(2,6-dichlorophenyl)-5-(2-hydroxyethoxy)-2-(hydroxymethyl)-1,6-naphthyridin-4(1H)-one]	36
O=c1cc(CO)n(-c2c(Cl)cccc2Cl)c2c(Cl)cnc(NCCOCCOCCOCCO)c12 [Example 13, 8-chloro-1-(2,6-dichlorophenyl)-5-((2-(2-(2-(2-hydroxyethoxy)ethoxy)ethoxy)ethyl)amino)-2-(hydroxymethyl)-1,6-naphthyridin-4(1H)-one]	71
Cc1cc(=O)c2c(OCCOCCOCCOCCOCCO)ncc(Cl)c2n1-c1c(Cl)cccc1Cl [Example 14, 8-chloro-1-(2,6-dichlorophenyl)-5-((14-hydroxy-3,6,9,12-tetraoxatetradecyl)oxy)-2-methyl-1,6-naphthyridin-4(1H)-one]	52
COCCOCCOCCOCCOCCOCCOc1ncc(Cl)c2c1c(=O)cc(C)n2-c1c(Cl)cccc1Cl [Example 15, 5-(2,5,8,11,14,17-hexaoxanonadecan-19-yloxy)-8-chloro-1-(2,6-dichlorophenyl)-2-methyl-1,6-naphthyridin-4(1H)-one]	25
Cc1cc(=O)c2c(NCCOCCOCCOCCO)ncc(Cl)c2n1-c1c(Cl)cccc1C#N [Example 16, 3-chloro-2-(8-chloro-5-((2-(2-(2-(2-hydroxyethoxy)ethoxy)ethoxy)ethyl)amino)-2-methyl-4-oxo-1,6-naphthyridin-1(4H)-yl)benzonitrile]	176
Cc1cc(=O)c2c(NCC(O)C(=O)NCCO)ncc(Cl)c2n1-c1c(Cl)cccc1Cl (stereo not shown) [Example 17, 3-((8-chloro-1-(2,6-dichlorophenyl)-2-methyl-4-oxo-1,4-dihydro-1,6-naphthyridin-5-yl)amino)-2-hydroxy-N-(2-hydroxyethyl)propanamide]	60
Cc1cc(=O)c2c(OCC(O)CO)cncc2n1-c1c(Cl)cc(C#N)cc1Cl (stereo not shown) [Example 18, 3,5-dichloro-4-(5-(2,3-dihydroxypropoxy)-2-methyl-4-oxo-1,7-naphthyridin-1(4H)-yl)benzonitrile]	1860
Cc1cc(=O)c2c(OCCOCCOCCOCCOCCOCCO)ncc(Cl)c2n1-c1c(Cl)cccc1Cl [Example 19, 8-chloro-1-(2,6-dichlorophenyl)-5-((17-hydroxy-3,6,9,12,15-pentaoxaheptadecyl)oxy)-2-methyl-1,6-naphthyridin-4(1H)-one]	98
